# Source: patent US8546442B2, “Pyrazolopiperidine compounds as CCR1 receptor antagonists” (Boehringer Ingelheim International GmbH, priority 2010, dated 2013)
# Assays:
# CCR1 [1] = target: T1, CCR1 (Homo sapiens, UniProt P32246); test: calcium flux in CCR1 transfected cells, Method A (Fluo-4 NW, FLIPR TETRA); assay type: cell-based; settings: cells stably expressing recombinant CCR1 and G-alpha-16, MIP-1 alpha at EC80
# T1 sequence (P32246 1-355): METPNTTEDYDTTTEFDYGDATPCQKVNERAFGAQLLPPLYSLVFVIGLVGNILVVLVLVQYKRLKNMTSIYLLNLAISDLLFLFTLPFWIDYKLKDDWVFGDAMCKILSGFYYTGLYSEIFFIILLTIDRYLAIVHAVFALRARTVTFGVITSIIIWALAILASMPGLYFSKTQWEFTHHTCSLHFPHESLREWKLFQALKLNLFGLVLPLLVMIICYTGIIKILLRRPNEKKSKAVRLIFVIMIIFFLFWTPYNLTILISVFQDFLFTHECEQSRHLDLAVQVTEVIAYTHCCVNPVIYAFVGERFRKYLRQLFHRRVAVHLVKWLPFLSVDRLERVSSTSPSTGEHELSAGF
# Procedure: (§1) Compounds are assessed for the ability to block the interaction of CCR1 and MIP-1α in a functional cellular assay measuring calcium flux in CCR1 transfected cells.
# Method A: Non-adherent cells purchased from Chemicon Corporation (HTS005C), stably expressing recombinant CCR1 and G-alpha-16 are grown in RPMI 1640 medium (Mediatech 10-080-CM) supplemented with 10% heat-inactivated FBS, 0.4 mg/mL Geneticin and penicillin/streptomycin. On the day of the assay, the cells are transferred to a beaker and dye-loaded in bulk using a Fluo-4 NW Calcium Assay Kit with probenecid (Invitrogen F36205) at 0.8E6 cells/mL for 1 hour at room temperature. After 1 hour, they are seeded in a 384-well tissue culture-treated plate at a density of 20,000 cells/well. Appropriately diluted test compound is added to the well to achieve a top concentration of 3,000 nM (diluted 4-fold with 10 doses total). The final concentration of DMSO is 1%. The buffer is HBSS (Invitrogen 14025) with 20 mM HEPES at pH 7.4. The cells are allowed to incubate 1 hour in the dark at room temperature. The plates are transferred to the FLIPR TETRA where MIP-1 alpha in 1% BSA is added at the EC80 final concentration. Wells+/−MIP-1 alpha containing diluted DMSO instead of compound serve as the controls. Intracellular calcium flux is recorded on the FLIPR TETRA, using excitation at 470/495 nm and emission at 515/575 nm. Data are analyzed using Activity Base software.
# CCR1 [2] = target: T1, CCR1; test: calcium flux in CCR1 transfected cells, Method B (Calcium 4 dye, HAMAMATSU FDSS6000); assay type: cell-based; settings: cells stably expressing recombinant CCR1 and G-alpha-16, MIP-1alpha at EC80
# Procedure: as §1
# Method B: Non-adherent cells purchased from Chemicon Corporation (HTS005C), stably expressing recombinant CCR1 and G-alpha-16 are grown in RPMI 1640 medium (Mediatech 10-080-CM) supplemented with 10% FBS, 0.4 mg/mL Geneticin and penicillin/streptomycin. On the day of the assay, the cells are loaded with Calcium 4 dye (Molecular Devices R7448) with Probenecid (Invitrogen P346400) at 8E5 cells/mL for 1 hour at room temperature. After 1 hour, they are seeded in a 384-well tissue culture-treated plate at a density of 20,000 cells/well. Appropriately diluted test compound is added to the well to achieve a top concentration of 3,000 nM (diluted 4-fold with 10 doses total). The final concentration of DMSO is 1%. The buffer is HBSS (Invitrogen 14025) with 20 mM HEPES at pH 7.4. The cells incubate 30 minutes at 37 C and then 30 minutes at room temperature. The plates are transferred to the HAMAMATSU FDSS6000 where MIP-1alpha in 1% BSA is added at the EC80 final concentration. All plates must be read within 4 hours of the start of dye-loading. Wells+/−MIP-1alpha containing diluted DMSO instead of compound serve as the controls. Data are analyzed using Activity Base software.
SMILES,IC50 (CCR1 [1]),IC50 (CCR1 [2])
"CCC[C@H](NC(=O)N1c2cnn(-c3ccc(F)cc3)c2CCC1C(F)(F)F)c1ccnc(S(C)(=O)=O)c1 (single isomer, unassigned) [Example 56]",10 nM,6 nM
CS(=O)(=O)c1cccc(CNC(=O)N2CCCc3c2cnn3-c2ccc(F)cc2)c1 [Example 23],31 nM,22 nM
CS(=O)(=O)c1ccc(CNC(=O)N2CCCc3c2cnn3-c2ccc(F)cc2)cc1 [Example 25],51 nM,65 nM
"O=C(NCc1ccc(S(=O)(=O)NC2CCOCC2)cc1)N1CCCc2c1cnn2-c1ccc(F)cc1 [Example 28, 1-(4-Fluorophenyl)-1,5,6,7-tetrahydro-pyrazolo[4,3-b]pyridine-4-carboxylic acid 4-(tetrahydro-pyran-4-ylsulfamoyl)-benzylamide]",40 nM,10 nM
CN(C)S(=O)(=O)c1cccc(CNC(=O)N2CCCc3c2cnn3-c2ccc(F)cc2)c1 [Example 33],19 nM,–
C[C@@H](CO)NS(=O)(=O)c1ccc(CNC(=O)N2CCCc3c2cnn3-c2ccc(F)cc2)cc1 [Example 35],4 nM,–
CCCC(NC(=O)N1CCCc2c1cnn2-c1ccc(F)cc1)c1ccc(S(C)(=O)=O)nc1 (stereo not shown) [Example 36],3 nM,3 nM
CNS(=O)(=O)c1ccc(CNC(=O)N2CCCc3c2cnn3-c2ccc(F)cc2)c(F)c1 [Example 38],11 nM,2 nM
CCCC(NC(=O)N1CCCc2c1cnn2-c1ccc(F)cc1)c1cncc(Br)c1 (stereo not shown) [Example 39],0.2 nM,0.4 nM
O=C(NCc1cc(Cl)cc(Cl)c1)N1CCCc2c1cnn2-c1ccc(F)cc1 [Example 40],33 nM,3 nM
C[C@H](NC(=O)N1CCCc2c1cnn2-c1ccc(F)cc1)c1cncc(Br)c1 [Example 41],6 nM,2 nM
CC[C@H](NC(=O)N1CCCc2c1cnn2-c1ccc(F)cc1)c1cncc(Br)c1 [Example 42],0.4 nM,0.2 nM
"CC[C@H](NC(=O)N1CCCc2c1cnn2-c1ccc(F)cc1)c1ccc(Br)nc1 [Example 48, 1-(4-Fluorophenyl)-1,5,6,7-tetrahydro-pyrazolo[4,3-b]pyridine-4-carboxylic acid [(S)-1-(6-bromo-pyridin-3-yl)-propyl]-amide]",19 nM,2 nM
CCC[C@H](NC(=O)N1CCCc2c1cnn2-c1ccc(F)cc1)c1ccc(Br)nc1 [Example 49],12 nM,2 nM
CC[C@H](NC(=O)N1CCCc2c1cnn2-c1ccc(F)cc1)c1ccc(S(C)(=O)=O)nc1 [Example 51],14 nM,3 nM
CC[C@H](NC(=O)N1c2cnn(-c3ccc(F)cc3)c2CCC1C)c1ccnc(S(C)(=O)=O)c1 (stereo partly shown) [Example 55],13 nM,12 nM
CCC[C@H](NC(=O)N1CCCc2c1cnn2-c1ccc(F)cc1F)c1ccnc(S(C)(=O)=O)c1 [Example 62],1 nM,1 nM
CCC[C@H](NC(=O)N1CCCc2c1cnn2-c1c(F)cc(F)cc1F)c1ccnc(S(C)(=O)=O)c1 [Example 63],14 nM,14 nM

# Further compounds by falling IC50 (CCR1 [1]), results first:
IC50 (CCR1 [1]),IC50 (CCR1 [2]),SMILES
22 nM,5 nM,CNS(=O)(=O)c1ccc(CNC(=O)N2CCCc3c2cnn3-c2ccc(F)cc2)cc1 [Example 22]
20 nM,–,C[C@H](CO)NS(=O)(=O)c1ccc(CNC(=O)N2CCCc3c2cnn3-c2ccc(F)cc2)cc1 [Example 34]
12 nM,8 nM,CCC[C@H](NC(=O)N1c2cnn(-c3ccc(F)cc3)c2CCC1C(F)(F)F)c1cncc(S(C)(=O)=O)c1 (stereo partly shown) [Example 61]
6 nM,4 nM,COCCNS(=O)(=O)c1ccc(CNC(=O)N2CCCc3c2cnn3-c2ccc(F)cc2)cc1 [Example 26]
4 nM,0.9 nM,CCC[C@H](NC(=O)N1CCCc2c1cnn2-c1ccc(F)cc1)c1ccc(S(C)(=O)=O)nc1 [Example 50]
3 nM,1 nM,CNS(=O)(=O)c1ccc(CNC(=O)N2CCCc3c2cnn3-c2ccc(F)cc2)c(Cl)c1 [Example 31]
1 nM,0.6 nM,CC[C@H](NC(=O)N1CCCc2c1cnn2-c1ccc(F)cc1)c1cncc(S(C)(=O)=O)c1 [Example 45]
0.5 nM,0.3 nM,CCC[C@H](NC(=O)N1CCCc2c1cnn2-c1ccc(F)cc1)c1ccnc(S(C)(=O)=O)c1 [Example 60]
0.4 nM,0.2 nM,CCC[C@H](NC(=O)N1CCCc2c1cnn2-c1ccc(F)cc1)c1cncc(S(C)(=O)=O)c1 [Example 47]
0.4 nM,0.6 nM,CC[C@H](NC(=O)N1CCCc2c1cnn2-c1ccc(F)cc1)c1ccnc(S(C)(=O)=O)c1 [Example 59]
0.2 nM,0.2 nM,CCC[C@H](NC(=O)N1CCCc2c1cnn2-c1ccc(F)cc1)c1cncc(Br)c1 [Example 46]
